# Measured values from paper PMC3674108 (Journal of the American Chemical Society, 2013).
# Entries after “also recorded” stand apart in the source; their conditions may differ. Where two headings read alike, the source gives them in different places. Marks after values point to notes of the source that are not given here.
# How the values were obtained:
# [1] = target: T1, ecTSase (Escherichia coli, UniProt P0A884); assay: Noncompetitive KIE experiments; format: biochemical; details: w/ 50 mM MgCl2, 25 °C; for KMCH2H4folate / kcat: 100 μM dUMP, pH 7.5
# [2] = target: ecTSase-dUMP-Mg^2+ complex; format: binding, Escherichia coli; details: read-out: KdCH4H4fol; w/ 50 mM MgCl2, 25 °C, calculated using Eq 5
# [3] = target: Escherichia coli TSase (ecTSase) (Escherichia coli, UniProt P0A884); assay: Steady-state initial velocities of ecTSase; format: biochemical; details: for Hill coefficient x (inhibitory binding mode): Eq 3
# [4] = target: ecTSase-dUMP complex; format: binding, Escherichia coli; details: read-out: KdCH4H4fol; w/o Mg^2+, 25 °C, calculated using Eq 5
# [5] = target: T1, ecTSase
# [6] = target: T2, apo-ecTSase (Escherichia coli, UniProt P0A884); details: read-out: Kd of Mg^2+ for apo-ecTSase; 25 °C, pH 7.5, one-site binding fit
# [7] = target: T2, apo-ecTSase; assay: biochemical
# [8] = target: ecTSase-Mg^2+ complex (Escherichia coli, UniProt P0A884); assay: Fluorescence assay, dUMP titration into ecTSase pre-incubated with MgCl2; format: binding
# Chain of ecTSase-Mg^2+ complex (P0A884 whole entry, one chain of several): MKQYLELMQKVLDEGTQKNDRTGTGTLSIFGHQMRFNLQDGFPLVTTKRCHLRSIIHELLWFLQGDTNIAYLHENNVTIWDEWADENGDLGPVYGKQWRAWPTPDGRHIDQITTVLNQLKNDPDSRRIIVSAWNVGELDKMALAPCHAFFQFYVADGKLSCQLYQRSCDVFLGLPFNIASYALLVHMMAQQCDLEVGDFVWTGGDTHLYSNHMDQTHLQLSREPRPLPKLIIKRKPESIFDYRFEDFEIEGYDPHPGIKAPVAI
# T1 sequence (P0A884 whole entry): as the sequence (P0A884 whole entry, one chain of several) above
# Chain of Escherichia coli TSase (ecTSase) (P0A884 whole entry): as the sequence (P0A884 whole entry, one chain of several) above
# T2 sequence (P0A884 whole entry): as the sequence (P0A884 whole entry, one chain of several) above
compound,measurement,setting,value
[2H][C@]12CNc3nc(N)[nH]c(=O)c3N1CN(c1ccc(C(=O)N[C@@H](CCC(=O)O)C(=O)O)cc1)C2 [6R-D-CH2H4fol],KMCH2H4folate,[1],19 ± 5 µM
same,kcat,[1],2.3 ± 0.2 s⁻¹
"Nc1nc2c(c(=O)[nH]1)N1CN(c3ccc(C(=O)N[C@@H](CCC(=O)O)C(=O)O)cc3)CC1CN2 (stereo partly drawn) [CH2H4fol, N^5,N^10-methylene-5,6,7,8-tetrahydrofolate]",Kd,[2],8 ± 1 µM
same,Hill coefficient x (inhibitory binding mode),"[3]; absence of Mg^2+, best-fit integer",2
same,Hill coefficient n (productive binding mode),"[3]; both absence and presence of Mg^2+, best-fit integer, Eq 2",1
same,Hill coefficient x (inhibitory binding mode),"[3]; presence of Mg^2+ (50 mM MgCl2), best-fit integer",1
same,KMCH4H4fol,"[3]; w/ 50 mM MgCl2, 25 °C, 100 μM dUMP",15 ± 1 µM
same,KMCH4H4fol,"[3]; w/o Mg^2+, 25 °C",17 ± 2 µM
same,KMCH2H4folate,[1],15 ± 1 µM
same,kcat,[1],8.7 ± 0.2 s⁻¹
same,Kd,[4],17 ± 2 µM
[Ca+2].[Cl-].[Cl-] [CaCl2],effect on initial velocities (ionic strength control),"[3]; 50 mM CaCl2, 25 °C",no difference; also recorded: no effects on the initial velocities
[Mg+2] [Mg^2+],AH/AT (isotope effect on the Arrhenius prefactors of the hydride transfer),[5]; w/ 50 mM MgCl2,6.6 ± 1.3
same,intrinsic H/D KIE (^Dk) on the hydride transfer,"[5]; w/ 50 mM MgCl2, 25 °C, competitive KIE experiment",3.9 ± 0.2^a
same,increase of kcat (hydride transfer rate) by Mg^2+,"[3]; 50 mM MgCl2, 5-35 °C",ca. 7 fold
same,increase of the Michaelis constant of dUMP by Mg^2+,"[3]; 50 mM MgCl2, 25 °C",ca. 5 fold
same,reduction of activation free energy ΔG^‡ of kcat by Mg^2+,"[3]; 50 mM MgCl2, 25 °C",ca. 1 kcal/mol
same,reduction of entropy of activation TΔS^‡ of kcat by Mg^2+,"[3]; 50 mM MgCl2, 25 °C",ca. 1 kcal/mol
same,-TΔS^‡ at 25 °C from fitting kcat to the Eyring equation,[3]; w/ 50 mM MgCl2,12.8 ± 0.2 kcal/mol
same,ΔH^‡ from fitting kcat to the Eyring equation,"[3]; w/ 50 mM MgCl2, 5-35 °C",3.4 ± 0.2 kcal/mol
same,ΔG^‡ from fitting kcat to the Eyring equation,"[3]; w/ 50 mM MgCl2, 25 °C",16.2 ± 0.4 kcal/mol
same,Kd,[6],27000 ± 7000 µM
same,observed H/D KIE on kcat (^Dkcat),[1],3.8 ± 0.3
"O=c1ccn([C@H]2C[C@H](O)[C@@H](COP(=O)(O)O)O2)c(=O)[nH]1 [dUMP, 2’-deoxyuridine-5’-monophosphate]",Kd,[7],8.5 ± 0.9 µM
same,KMdUMP,"[3]; w/ 50 mM MgCl2, 25 °C, 150 μM CH2H4fol",2.4 ± 0.2 µM
same,KMdUMP,"[3]; w/o Mg^2+, 25 °C",0.5 ± 0.1 µM
same,Kd,[8],14 ± 2 µM
